Source: patent US9125388B2, “Biological control” (Isis Innovation Limited, priority 1999, dated 2015)

Columns and labels:
Format in all cases: in vivo, Drosophila melanogaster
Conditions in all cases: 25° C.
[1] = tested on: Yp3 tTa, tRe Msl-1^Mpu on the 2nd chromosome; experiment: Recombinant chromosome experiments: parents raised on supplement, progeny on normal food, adults by sex (25, 18 or 29° C.)
Description: (§1) 40-45 young females and 20-25 young males raised at 25° C. upon food with the indicated tetracycline supplement were allowed to mate, then transferred to normal (tetracycline-free) food after 3-4 days. These flies were transferred to fresh vials of normal food every day for 12 days, then removed on the 13th day. All the vials were incubated at 25° C. while the progeny developed. The numbers of male and female progeny emerging as adults in each vial were recorded.
Since there is no meiotic recombination in Drosophila melanogaster males, any of these recombinant chromosomes could be used in a genetic sexing or insect control program, if required.
(§2) A standard range of additive concentrations were used in the following experiments (0.05-20 μg/ml). […] (=“not done”)
(§3) All the preceding experiments were performed at 25° C., the standard temperature for Drosophila culture. However, the insects in the wild would clearly be exposed to varying temperatures, so we investigated the extent to which the efficiency of the system is affected by temperature. As with the recombinant chromosome experiments, 40-45 young virgin females and 20-25 young males raised at 25° C. upon food with the indicated tetracycline supplement were allowed to mate, then transferred to normal (tetracycline-free) food after 3-4 days. These flies were transferred to fresh vials of normal food every day. The numbers of male and female progeny emerging as adults in each vial were recorded. These experiments were performed at either 18° C. or 29° C.

[2] = tested on: Sxl^pe-tTA, tRE-Msl-2^Nopu on the third chromosome; experiment: as above
Description: as §1, §2, §3

[3] = tested on: Sxl^pe-tTA, tRE-Ras64B^V12 on the X chromosome; experiment: as above
Description: as §1, §2, §3

[4] = tested on: Sxl^pe-tTA, tRE-Ras64B^V12 on the third chromosome; experiment: as above
Description: as §1, §2, §3

[5] = tested on: Sxl^pe-tTA, tRE-Msl-2^Nopu on the X chromosome; experiment: as above
Description: as §1, §2, §3

[6] = tested on: Yp3 tTa, tRe Msl-2^Nopu on the 2nd chromosome; experiment: as above
Description: as §1, §2, §3

[7] = tested on: Hsp26 tTa, tRe Msl-2^Nopu on the 2nd chromosome; experiment: as above
Description: as §1, §2, §3

[8] = tested on: Sxlp^e tTa, tRe Msl-1^Mpu on the X chromosome; experiment: as above
Description: as §1, §2, §3

[9] = tested on: Hsp26 tTa, tRe Msl-1^Mpu on the 2nd chromosome; experiment: as above
Description: as §1, §2, §3

[10] = tested on: Recombinant chromosome stocks; experiment: Maintenance of stocks on non-antibiotic tetracycline analogues
Description: Recombinant chromosome stocks can readily be maintained at 25° C. on epioxytetracycline concentrations of 1 μg/ml or anhydrotetracycline concentrations of 0.1 μg/ml, showing that these non-antibiotic tetracycline analogues are effective in repressing tTA responsive gene expression.
as §2

[11] = tested on: Yp3 tTa, tRe Ras64B^V12 on the 2nd chromosome; experiment: Recombinant chromosome experiments / maternal transmission of Tc (Table 1): parents raised on supplement, progeny on normal food, adults by sex
Description: as §1, §2, §3
We used a strain of Drosophila in which females, but not males, require Tc for viability.
A strain homozygous for second chromosome insertions of both Yp3-tTA and tRe-Ras64B^V12 was tested for the effect of parental dietary Tc. 40-45 young females and 20-25 young males raised at 25° C. upon food with the indicated tetracycline supplement were allowed to mate, then transferred to normal (tetracycline-free) food after 3-4 days. These flies were transferred to fresh vials of normal food every day for 12 days, and then removed on the 13th day. All the vials were incubated at 25° C. while the progeny developed. The total numbers of male and female progeny emerging as adults were recorded.

[12] = parents raised on anhydrotetracycline 0.05 μg/ml
[13] = parents raised on anhydrotetracycline 0.1 μg/ml
[14] = parents raised on anhydrotetracycline 1 μg/ml
[15] = parents raised on anhydrotetracycline 5 μg/ml
[16] = parents raised on anhydrotetracycline 20 μg/ml

SMILES: Cc1c2c(c(O)c3c(O)cccc13)C(=O)[C@]1(O)C(=O)C(C(N)=O)=C(O)[C@@H](N(C)C)[C@@H]1C2 [anhydrotetracycline]
- Female progeny emerging as adults [1, 12]: 0
- Male progeny emerging as adults [1, 12]: 1339
- Female progeny emerging as adults [1, 13]: 0
- Male progeny emerging as adults [1, 13]: 1263
- Female progeny emerging as adults [1, 14]: 0
- Male progeny emerging as adults [1, 14]: 1265
- Female progeny emerging as adults [1, 15]: 0
- Male progeny emerging as adults [1, 15]: 1284
- Female progeny emerging as adults [1, 16]: 0
- Male progeny emerging as adults [1, 16]: 1297
- Female progeny emerging as adults [2, 12]: 0
- Male progeny emerging as adults [2, 12]: 1331
- Female progeny emerging as adults [2, 13]: 0
- Male progeny emerging as adults [2, 13]: 1431
- Female progeny emerging as adults [2, 14]: 0
- Male progeny emerging as adults [2, 14]: 1309
- Female progeny emerging as adults [2, 15]: 0
- Male progeny emerging as adults [2, 15]: 1359
- Female progeny emerging as adults [2, 16]: 1
- Male progeny emerging as adults [2, 16]: 1362
- Female progeny emerging as adults [3, 12]: 0
- Male progeny emerging as adults [3, 12]: 1452
- Female progeny emerging as adults [3, 13]: 0
- Male progeny emerging as adults [3, 13]: 1528
- Female progeny emerging as adults [3, 14]: 0
- Male progeny emerging as adults [3, 14]: 1614
- Female progeny emerging as adults [3, 15]: 0
- Male progeny emerging as adults [3, 15]: 1448
- Female progeny emerging as adults [3, 16]: 5
- Male progeny emerging as adults [3, 16]: 1592
- Female progeny emerging as adults [4, 12]: 0
- Male progeny emerging as adults [4, 12]: 1381
- Female progeny emerging as adults [4, 13]: 0
- Male progeny emerging as adults [4, 13]: 1304
- Female progeny emerging as adults [4, 14]: 0
- Male progeny emerging as adults [4, 14]: 1121
- Female progeny emerging as adults [4, 15]: 0
- Male progeny emerging as adults [4, 15]: 1269
- Female progeny emerging as adults [4, 16]: 1
- Male progeny emerging as adults [4, 16]: 1247
- Female progeny emerging as adults [5, 12]: 0
- Male progeny emerging as adults [5, 12]: 1114
- Female progeny emerging as adults [5, 13]: 0
- Male progeny emerging as adults [5, 13]: 1120
- Female progeny emerging as adults [5, 14]: 0
- Male progeny emerging as adults [5, 14]: 1130
- Female progeny emerging as adults [5, 15]: 0
- Male progeny emerging as adults [5, 15]: 1148
- Female progeny emerging as adults [5, 16]: 0
- Male progeny emerging as adults [5, 16]: 1128
- Female progeny emerging as adults [6, 12]: 0
- Male progeny emerging as adults [6, 12]: 1316
- Female progeny emerging as adults [6, 13]: 0
- Male progeny emerging as adults [6, 13]: 1358
- Female progeny emerging as adults [6, 14]: 0
- Male progeny emerging as adults [6, 14]: 1354
- Female progeny emerging as adults [6, 15]: 0
- Male progeny emerging as adults [6, 15]: 1344
- Female progeny emerging as adults [6, 16]: 1
- Male progeny emerging as adults [6, 16]: 1312
- Female progeny emerging as adults [7, 12]: 0
- Male progeny emerging as adults [7, 12]: 707
- Female progeny emerging as adults [7, 13]: 0
- Male progeny emerging as adults [7, 13]: 1457
- Female progeny emerging as adults [7, 14]: 0
- Male progeny emerging as adults [7, 14]: 1437
- Female progeny emerging as adults [7, 15]: 0
- Male progeny emerging as adults [7, 15]: 773
- Female progeny emerging as adults [7, 16]: 5
- Male progeny emerging as adults [7, 16]: 1447
- Female progeny emerging as adults [8, 12]: 0
- Male progeny emerging as adults [8, 12]: 1582
- Female progeny emerging as adults [8, 13]: 0
- Male progeny emerging as adults [8, 13]: 1499
- Female progeny emerging as adults [8, 14]: 0
- Male progeny emerging as adults [8, 14]: 1474
- Female progeny emerging as adults [8, 15]: 0
- Male progeny emerging as adults [8, 15]: 1619
- Female progeny emerging as adults [8, 16]: 5
- Male progeny emerging as adults [8, 16]: 1533
- Female progeny emerging as adults [9, 12]: 0
- Male progeny emerging as adults [9, 12]: 1492
- Female progeny emerging as adults [9, 13]: 0
- Male progeny emerging as adults [9, 13]: 1426
- Female progeny emerging as adults [9, 14]: 0
- Male progeny emerging as adults [9, 14]: 1418
- Female progeny emerging as adults [9, 15]: 0
- Male progeny emerging as adults [9, 15]: 1457
- Female progeny emerging as adults [9, 16]: 8
- Male progeny emerging as adults [9, 16]: 1499
- concentration on which recombinant chromosome stocks can readily be maintained [10]: 0.1 µg/mL
- repressing tTA responsive gene expression [10]: effective
- Female progeny emerging as adults [11, 12]: 0
- Male progeny emerging as adults [11, 12]: 1449
- Female progeny emerging as adults [11, 13]: 0
- Male progeny emerging as adults [11, 13]: 1411
- Female progeny emerging as adults [11, 14]: 0
- Male progeny emerging as adults [11, 14]: 1397
- Female progeny emerging as adults [11, 15]: 0
- Male progeny emerging as adults [11, 15]: 1430
- Female progeny emerging as adults [11, 16]: 2
- Male progeny emerging as adults [11, 16]: 1428
